Results from patent publication US12522827B2 (priority 2021, dated 2026).
pIC50: −log10 of the molar value. Read-outs that look alike come from different tables or passages of the source.

Assays:
[1] = tested on: PR8; test: microbe, parasite or virus in culture; assay type: cell-based, Influenza A/PR/8/34 (PR8) H1N1 virus
[2] = tested on: A/WSN/33 (H1N1) virus with NA H274Y resistance mutation; assay type: cell-based, Influenza A/WSN/33 (H1N1)

| Molecule | increase of IC50 [1] [fold] | pIC50 ([1]; Influenza A virus, PR8, read-out: IC50 after serial passages) | pIC50 ([1]; Influenza A virus, PR8, read-out: starting IC50) | pIC50 [2] | pIC50 ([1]; read-out: IC50 after serial passages) | pIC50 ([1]; read-out: IC50 at start of passaging) | potency and efficacy [2] |
| --- | --- | --- | --- | --- | --- | --- | --- |
| CCOC(=O)C1=C[C@@H](OC(CC)CC)[C@H](NC(C)=O)[C@@H](N)C1 [Oseltamivir] | 1000 | 4.30 | 7.39 | 4.28 | – | – | – |
| TACTtactgacaGCC [LNA9] | – | – | – | – | 10.80 | 10.74 | picomolar activity |
